Measurements published in patent US9365522B2, “Pyrazole amide derivative” (AMGEN INC., priority 2015, dated 2016).

Target: T1, human RORγ-LBD (Homo sapiens, UniProt P51449)
T1 construct: made in house; host or cells: E. coli (BL-21)
T1 sequence (P51449 262-518): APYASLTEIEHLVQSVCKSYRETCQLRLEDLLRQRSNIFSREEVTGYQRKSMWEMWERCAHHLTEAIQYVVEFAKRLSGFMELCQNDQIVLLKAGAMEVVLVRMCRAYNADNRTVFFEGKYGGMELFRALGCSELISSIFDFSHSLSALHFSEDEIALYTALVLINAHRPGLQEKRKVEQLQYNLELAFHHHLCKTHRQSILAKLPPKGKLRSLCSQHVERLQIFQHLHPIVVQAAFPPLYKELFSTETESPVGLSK
Assay: ROR gamma coactivator peptide recruitment Alphascreen assay (RORγ-LBD binding to GRIP1 coactivator peptide)
Type: biochemical
Conditions: 5 nM human RORγ-LBD, 30 nM 7-β-hydroxycholesterol, 50 nM biotinylated GRIP1 coactivator peptide, overnight incubation at room temperature; read-out: result (pIC50, RORγ coactivator peptide recruitment Alphascreen assay) (converted)
Summary of the method: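 His/Flag-tagged human RORγ-LBD (aa 262-518, E. coli-expressed, 5 nM) with agonist 7-β-hydroxycholesterol (30 nM) and biotinylated GRIP1 LXXLL peptide (50 nM) in HEPES pH 7.4 buffer, 2.5% DMSO. Compound 1-in-2 dilutions; Alphascreen bead signal read after overnight incubation at room temperature; pIC50 calculated.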

Row | IC50 [nM] | SMILES
1 | 4.68 | C[C@]1(C(=O)O)CC[C@H](n2ncc(C(=O)N(CC(=O)c3c(Cl)cncc3Cl)CC34CC(C3)C4)c2C(F)(F)F)CC1 [Example 854, trans-4-(4-((bicyclo[1.1.1]pent-1-ylmethyl)(2-(3,5-dichloro-4-pyridinyl)-2-oxoethyl)carbamoyl)-5-(trifluoromethyl)-1H-pyrazol-1-yl)-1-methylcyclohexanecarboxylic acid]
2 | 2.95 | C[C@H]1C[C@@H](n2ncc(C(=O)N(CC(=O)c3c(Cl)cncc3Cl)CC(C)(C)C(F)(F)F)c2C(F)(F)F)CC[C@@H]1C(=O)O (stereo in doubt) [Example 864, (1S,2S,4S)-4-(4-((2-(3,5-dichloro-4-pyridinyl)-2-oxoethyl)(3,3,3-trifluoro-2,2-dimethylpropyl)carbamoyl)-5-(trifluoromethyl)-1H-pyrazol-1-yl)-2-methylcyclohexanecarboxylic acid]
3 | 331 | C[C@@]1(CN(CCc2c(Cl)cncc2Cl)C(=O)c2cnn([C@H]3CC[C@H](C(=O)O)CC3)c2C(F)(F)F)CCCO1 [Example 552, trans-4-(4-((2-(3,5-dichloro-4-pyridinyl)ethyl)(((2S)-2-methyltetrahydro-2-furanyl)methyl)carbamoyl)-5-(trifluoromethyl)-1H-pyrazol-1-yl)cyclohexanecarboxylic acid]
4 | 81.3 | C[C@H]1C[C@H](n2ncc(C(=O)N(CC(=O)c3c(Cl)cncc3Cl)C[C@@H]3CCC(C)(C)O3)c2C(F)(F)F)CCC1C(=O)O (stereo in doubt) [Example 773, (1S,2S,4R)-4-(4-((2-(3,5-dichloro-4-pyridinyl)-2-oxoethyl)(((2S)-5,5-dimethyltetrahydro-2-furanyl)methyl)carbamoyl)-5-(trifluoromethyl)-1H-pyrazol-1-yl)-2-methylcyclohexanecarboxylic acid]
5 | 5.25 | CC(C)(C)CN(CC(=O)c1c(Cl)cncc1Cl)C(=O)c1cnn([C@H]2CC[C@](C)(CC(=O)O)CC2)c1C(F)(F)F [Example 791, (trans-4-(4-((2-(3,5-dichloro-4-pyridinyl)-2-oxoethyl)(2,2-dimethylpropyl)carbamoyl)-5-(trifluoromethyl)-1H-pyrazol-1-yl)-1-methylcyclohexyl)acetic acid]
6 | 204 | CC1(CN(CCc2c(Cl)cncc2Cl)C(=O)c2cnn([C@H]3CC[C@@H](C(=O)O)CC3)c2C(F)(F)F)CC1 [Example 563, cis-4-(4-((2-(3,5-dichloro-4-pyridinyl)ethyl)((1-methylcyclopropyl)methyl)carbamoyl)-5-(trifluoromethyl)-1H-pyrazol-1-yl)cyclohexanecarboxylic acid]
7 | 18.2 | Cc1cc(Cl)c(C(=O)CN(CC2CC3(CC3)C2)C(=O)c2cnn([C@H]3CC[C@@H](C(=O)O)CC3)c2C(F)(F)F)c(Cl)c1 [Example 565, cis-4-(4-((2-(2,6-dichloro-4-methylphenyl)-2-oxoethyl)(spiro[2.3]hex-5-ylmethyl)carbamoyl)-5-(trifluoromethyl)-1H-pyrazol-1-yl)cyclohexanecarboxylic acid]
8 | 1.38 | Cc1cc(Cl)c(C(=O)CN(CC2(F)CCCCC2)C(=O)c2cnn([C@H]3CC[C@](C)(C(=O)O)CC3)c2C(F)(F)F)c(Cl)c1 [Example 665, trans-4-(4-((2-(2,6-dichloro-4-methylphenyl)-2-oxoethyl)((1-fluorocyclohexyl)methyl)carbamoyl)-5-(trifluoromethyl)-1H-pyrazol-1-yl)-1-methylcyclohexanecarboxylic acid]
9 | 3.98 | CC(C)(C)CN(CC(=O)c1c(Cl)cncc1Cl)C(=O)c1cnn([C@H]2CC[C@H](C(=O)O)C(C)(C)C2)c1C(F)(F)F (single isomer, unassigned) [Example 785]
10 | 1.82 | CC(C)(CN(CC(=O)c1c(Cl)cncc1Cl)C(=O)c1cnn([C@H]2CC[C@H](CC(=O)O)CC2)c1C(F)(F)F)C(F)(F)F [Example 884, (trans-4-(4-((2-(3,5-dichloro-4-pyridinyl)-2-oxoethyl)(3,3,3-trifluoro-2,2-dimethylpropyl)carbamoyl)-5-(trifluoromethyl)-1H-pyrazol-1-yl)cyclohexyl)acetic acid]
11 | 45.7 | CC1(CN(CC(=O)c2c(Cl)cncc2Cl)C(=O)c2cnn([C@H]3CC[C@H](C(=O)O)C(C)(C)C3)c2C(F)(F)F)CCC1 (single isomer, unassigned) [Example 807]
12 | 105 | COc1cccc(F)c1C(=O)CN(C(=O)c1cnn([C@H]2CC[C@](C)(C(=O)O)CC2)c1C(F)(F)F)C1CCC(C)(C)CC1 [Example 607, trans-4-(4-((4,4-dimethylcyclohexyl)(2-(2-fluoro-6-methoxyphenyl)-2-oxoethyl)carbamoyl)-5-(trifluoromethyl)-1H-pyrazol-1-yl)-1-methylcyclohexanecarboxylic acid]
13 | 1.62 | CC1(CN(CC(=O)c2c(Cl)cc(F)cc2Cl)C(=O)c2cnn([C@H]3CC[C@](C)(C(=O)O)CC3)c2C(F)(F)F)CCCCC1 [Example 696, trans-4-(4-((2-(2,6-dichloro-4-fluorophenyl)-2-oxoethyl)((1-methylcyclohexyl)methyl)carbamoyl)-5-(trifluoromethyl)-1H-pyrazol-1-yl)-1-methylcyclohexanecarboxylic acid]
14 | 7.24 | Cc1cc(Cl)c(CCN(CC(C)(C)C)C(=O)c2cnn(C3CCC(C(=O)O)CC3)c2C(F)(F)F)c(Cl)c1 (stereo in doubt) [Example 512, trans-4-(4-((2-(2,6-dichloro-4-methylphenyl)ethyl)(2,2 - dimethylpropyl)carbamoyl)-5-(trifluoromethyl)-1H-pyrazol-1-yl)cyclohexanecarboxylic acid]
15 | 13.8 | C[C@H]1C[C@@H](n2ncc(C(=O)N(CC(=O)c3c(Cl)cccc3Cl)CC3CC(C)(C)C3)c2C(F)(F)F)CC[C@H]1C(=O)O [Example 684, (1R,2S,4S)-4-(4-((2-(2,6-dichlorophenyl)-2-oxoethyl)((3,3-dimethylcyclobutyl)methyl)carbamoyl)-5-(trifluoromethyl)-1H-pyrazol-1-yl)-2-methylcyclohexanecarboxylic acid]
16 | 1.91 | Cc1cc(Cl)c(CCN(CC2CCCCC2)C(=O)c2cnn([C@H]3CC[C@](C)(C(=O)O)CC3)c2C(F)(F)F)c(Cl)c1 [Example 514, trans-4-(4-((cyclohexylmethyl)(2-(2,6-dichloro-4-methylphenyl)ethyl)carbamoyl)-5-(trifluoromethyl)-1H-pyrazol-1-yl)-1-methylcyclohexanecarboxylic acid]
17 | 174 | COc1cc(Cl)c(C(=O)CN(CC2(F)CCCC2)C(=O)c2cnn([C@H]3CC[C@@H](C(=O)O)CC3)c2C(F)(F)F)c(Cl)c1 [Example 590, cis-4-(4-((2-(2,6-dichloro-4-methoxyphenyl)-2-oxoethyl)((1-fluorocyclopentyl)methyl)carbamoyl)-5-(trifluoromethyl)-1H-pyrazol-1-yl)cyclohexanecarboxylic acid]
18 | 7.94 | CC1(C)CCC(N(CCc2c(Cl)cccc2Cl)C(=O)c2cnn([C@H]3CC[C@H](C(=O)O)CC3)c2C(F)(F)F)CC1 [Example 534, trans-4-(4-((2-(2,6-dichlorophenyl)ethyl)(4,4-dimethylcyclohexyl)carbamoyl)-5-(trifluoromethyl)-1H-pyrazol-1-yl)cyclohexanecarboxylic acid]
19 | 3.89 | C[C@]1(C(=O)O)CC[C@H](n2ncc(C(=O)N(CC(=O)c3c(Cl)cncc3Cl)CC3(C(F)(F)F)CCC3)c2C(F)(F)F)CC1 [Example 799, trans-4-(4-((2-(3,5-dichloro-4-pyridinyl)-2-oxoethyl)((1-(trifluoromethyl)cyclobutyl)methyl)carbamoyl)-5-(trifluoromethyl)-1H-pyrazol-1-yl)-1-methylcyclohexanecarboxylic acid]
20 | 4.37 | CC(C)(C)CN(CC(=O)c1c(Cl)ccc(F)c1Cl)C(=O)c1cnn([C@H]2CC[C@](C)(C(=O)O)CC2)c1C(F)(F)F [Example 764, trans-4-(4-((2-(2,6-dichloro-3-fluorophenyl)-2-oxoethyl)(2,2-dimethylpropyl)carbamoyl)-5-(trifluoromethyl)-1H-pyrazol-1-yl)-1-methylcyclohexanecarboxylic acid]
21 | 43.7 | Cc1cc(C)c(C(=O)CN(CC(C)(C)C)C(=O)c2cnn([C@H]3CC[C@](C)(C(=O)O)CC3)c2C(F)(F)F)c(Cl)n1 [Example 693, trans-4-(4-((2-(2-chloro-4,6-dimethyl-3-pyridinyl)-2-oxoethyl)(2,2-dimethylpropyl)carbamoyl)-5-(trifluoromethyl)-1H-pyrazol-1-yl)-1-methylcyclohexanecarboxylic acid]
22 | 2.57 | C[C@@H]1C[C@@H](n2ncc(C(=O)N(CC(=O)c3c(Cl)cncc3Cl)CC3CC(C)(C)C3)c2C(F)(F)F)CC[C@@H]1C(=O)O [Example 756, (1S,2R,4S)-4-(4-((2-(3,5-dichloro-4-pyridinyl)-2-oxoethyl)((3,3-dimethylcyclobutyl)methyl)carbamoyl)-5-(trifluoromethyl)-1H-pyrazol-1-yl)-2-methylcyclohexanecarboxylic acid]
23 | 8.71 | C[C@@H]1C[C@@H](n2ncc(C(=O)N(CC(=O)c3c(Cl)cccc3Cl)[C@@H]3CCC34CCC4)c2C(F)(F)F)CC[C@@H]1C(=O)O [Example 849, (1S,2R,4S)-4-(4-((2-(2,6-dichlorophenyl)-2-oxoethyl)((1R)-spiro[3.3]hept-1-yl)carbamoyl)-5-(trifluoromethyl)-1H-pyrazol-1-yl)-2-methylcyclohexanecarboxylic acid]
